The values below come from US20050054629A1, “Compounds and methods of treating cell proliferative diseases” (priority 2002, published 2005).

Assay [1] has as its system MMP-9. The assay can be described thus: Gelatin zymography. The assay is classed as cell-based, human. The following applies: MDA-MB-231 supernatant. The method, then:
(§1) The activity of the metalloproteases MMP-2 and MMP-9 was assayed using gelatinolytic zymography according to Lambert (Surgery 1997). Briefly, MDA-MB-231 cells were incubated overnight in serum-free medium supplemented with ITS liquid supplement (Sigma) with different concentrations of compound (1, 10, 17.5, 25 and 50 μM). Supernatant was collected and concentrated with Ultrafree 30 kDA (Millipore). Equal amount of proteins, as determined by Bradford measurement, were loaded onto a 10% w/v polyacrylamide gel containing 1% gelatin and 0.1% SDS (Novex). After electrophoresis, gels were washed in Novex Zymogram Renaturing buffer for 30 min at room temperature and incubated overnight at 37° C. in Novex Zymogram developing buffer. Gels were stained in Coomassie Brilliant Blue G-250, and the gelatinolytic activity was visualized as a clear band against the blue background of the stained gelatin.

In assay [2] the test system is MMP-2. The assay can be described thus: Gelatin zymography. Format: cell-based, human. The following applies: MDA-MB-231 supernatant. The method, then:
as §1

Assay [3] relates to HCT116 cells. In words: Anchorage-independent growth assay (soft agar / Matrigel). The assay is classed as cell-based, human. The following applies: for effect on anchorage-independent growth: HCT116; for IC50: Homo sapiens, HCT-116, 168 h, HCT116, 3-dimensional growth, 1 week. The method, then: In order to evaluate the effect of the compounds on the capacity of tumor cells to grow without anchorage, HCT116 cells were seeded either in agar or in Matrigel (BD, France). For 3D growth experiment in soft agar in 24-well plates, 5.10^3 HCT116 cells were resuspended in 250 μl of complete medium containing 0.3% soft-agar (Difco) and different concentrations of compound (0.1, 1, 10, 17.5, 25 and 50 μM). Cells were then poured on a solidified layer of medium containing 0.5% of soft-agar plus the compound at the same concentration than in the upper layer. Cells were incubated at 37° C. for 1 week before they were analysed using a phase contrast microscope (Nikon). For 3D growth experiment in Matrigel, 10^4 HCT116 cells were resuspended in 300 μl of complete medium containing 5 mg/ml Matrigel (BD, France) and different concentrations of compound (0.1, 1, 10, 17.5, 25 and 50 μM), and poured in 24-well plates. After solidification at 37° C. for 15 min., complete medium containing the compound was added to each well. Cells were incubated for 1 week before they were collected using Matrisperse (BD, France) according to the manufacturer's instructions. After recovery, alive cells were counted with trypan blue exclusion.

Assay [4] deals with HCT116 colon adenocarcinoma. The assay can be described thus: Cytotoxicity assay (MTT), 6 days. The following applies: 6 days of treatment, read-out: Toxicity 6d (IC 50, μM) HCT116. The assay is classed as cell-based, human. Summed up: (§2)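 Cells seeded 24 h before treatment with 0, 1, 10, 17.5, 25 and 50 μM compound in DMSO (1% final). After 6 days, cells were incubated 3 h at 37° C with 0.5 mg/ml MTT in PBS, formazan dissolved in DMSO, absorbance read at 550 nm; surviving fraction and IC50 calculated, triplicate.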

In assay [5] the test system is MDA-MB-231 breast carcinoma. The assay can be described thus: Cytotoxicity assay (MTT), 6 days. The following applies: Homo sapiens, MDA-MB-231, 144 h, 6 days of treatment, read-out: Toxicity 6d (IC 50, μM) MDA231. The assay is classed as cell-based. Summed up:
as §2

The test system of assay [6] is MCF-7 breast carcinoma. The assay can be described thus: Cytotoxicity assay (MTT), 6 days. The assay is classed as cell-based. Conditions: Homo sapiens, MCF7, 144 h, 6 days of treatment, read-out: Toxicity 6d (IC 50, μM) MCF7. Summed up:
as §2

The test system of assay [7] is H460 lung carcinoma. In words: Cytotoxicity assay (MTT), 6 days. Format: cell-based. The following applies: Homo sapiens, NCI-H460, 144 h, 6 days of treatment, read-out: Toxicity 6d (IC 50, μM) H460. Summed up: as §2
Assay [8] concerns MCF10-A. The assay can be described thus: Cytotoxicity assay (MTT), 6 days. The following applies: Homo sapiens, MCF-10A, 144 h, 6 days of treatment, read-out: Toxicity 6d (IC 50, μM) MCF10-A. The assay is classed as cell-based. Summed up: as §2
The subject of assay [9] is cell architecture. The assay can be described thus: Cell architecture modification, phase contrast. Format: cell-based. More on the design: key: −: no effect of the compound was observed; +: an effect of the compound was observed.
Assay [10] deals with NIH3T3 cells. In words: Colony formation assay with constitutively activated Ras (RasV12) and Rac (RacV12). Format: cell-based, mouse. More on the design: key to Colony formation: −: no effect of the compound was observed; +: an effect of the compound was observed. In outline:
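Ras and Rac signalling were measured with reporter systems. For colony formation, NIH3T3 cells were transfected with RasV12 or RacV12 plus neomycin plasmids, then grown 2-3 weeks in 400 μg/ml geneticin with compound at 1, 10, 17.5, 25 or 50 μM. Fuchsin-stained colonies of ≥50 cells were counted.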

The subject of assay [11] is NIH3T3. The assay can be described thus: Cytoskeleton analysis, actin staining (FITC-phalloidin). The assay is classed as cell-based, mouse. The following applies: for Cell architecture modification actin staining (R: ruffles; FC: focal complexes) NIH3T3: 24 h treatment; for concentration at which specific inhibition of membrane ruffles and increase in the number of stress fibers was observed: NIH3T3, actin staining. In outline:
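Subconfluent cells on coverslips were exposed to compound at 1, 10, 17.5, 25 or 50 μM, or to vehicle, for 24 h. They were then formaldehyde-fixed, Triton-permeabilized and blocked. Actin was stained with 0.5 μg/ml FITC-phalloidin for 1 h and imaged by inverted fluorescence microscopy.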

Where two headings read alike, the source gives them in different places.

As to `CCCc1c(OCCCCCOc2coc(CO)cc2=O)ccc(Cl)c1Cl` [EH22900, 5-[5-(3,4-Dichloro-2-propylphenyloxy)pentyloxy]-2-(hydroxymethyl)-4H-pyran-4-one], the “concentration inhibiting MMP-9 in a dose-dependant manner (zymogram gel)” value in assay [1] came to 5 µM. In addition, in assay [2], the “concentration inhibiting MMP-2 in a dose-dependant manner (zymogram gel)” value worked out at 5 µM. The “effect on anchorage-independent growth” value in assay [3] was “strongest effect”. The IC50 is under 1 µM in assay [3]; 10 µM in [4]; at most 15 µM in assay [4] (Homo sapiens, HCT-116, 144 h); 30 µM in [5]; 50 µM in assay [6]; 15 µM in assay [7]. In addition, the IC50 in assay [8] was over 50 µM. Further, the “Cell architecture modification phase contrast” value in assay [9] is reported as “+”. Moreover, the Colony formation entry in assay [10] is listed as “+”. Besides, the “Ras-dependent neoR clones formation” value in assay [10] (NIH3T3 transfected with RasVal12) is given as “inhibited”. In addition, the “Cell architecture modification actin staining (R: ruffles; FC: focal complexes) NIH3T3” value in [11] is reported as “R-, FC+”. Also, the “concentration at which specific inhibition of membrane ruffles and increase in the number of stress fibers was observed” value in assay [11] is 10 µM.
As to `C/C=C/c1oc(CO)cc(=O)c1OCCCCCOc1ccc(Cl)c(Cl)c1CCC` [EH31101, (E)-3-[5-(3,4-Dichloro-2-propylphenyloxy)pentyloxy]-6-(hydroxymethyl)-2-(propen-1-yl)-4H-pyran-4-one], in assay [1], the “concentration inhibiting MMP-9 in a dose-dependant manner (zymogram gel)” value was 0.1 µM. Moreover, in [2], the “concentration inhibiting MMP-2 in a dose-dependant manner (zymogram gel)” value was determined as 0.1 µM. Also, in [3], the “effect on anchorage-independent growth” value was “significant, although less severe, effect”. For the same compound, the IC50 was under 1 µM in assay [3]; 30 µM in assay [4] (Homo sapiens, HCT-116, 144 h); 25 µM in assay [5]; 25 µM in assay [6]; 25 µM in assay [7]; 35 µM in [8]. In assay [9], the “Cell architecture modification phase contrast” value is reported as “+”. Further, in [10], the Colony formation result was “−”. Also, the “Cell architecture modification actin staining (R: ruffles; FC: focal complexes) NIH3T3” value in [11] is “R-, FC+”. Besides, in [11], the “concentration at which specific inhibition of membrane ruffles and increase in the number of stress fibers was observed” value was found to be 50 µM.
